Reference: PubChem BioAssay (NCI)
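Compound exposure: 48 hours, 5 concentrations, 96-well plates. The concentration for full growth arrest is given as TGI.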

What was measured:
Assay in all cases: growth of human tumour cells (NCI), 48 h
HCT-116 colon = system: HCT-116 colon
HCC-2998 colon = system: HCC-2998 colon
HCT-15 colon = system: HCT-15 colon
MDA-MB-231 breast = system: MDA-MB-231 breast
MOLT-4 leukemia = system: MOLT-4 leukemia
NCI-H460 lung = system: NCI-H460 lung
MCF7 breast = system: MCF7 breast
IGROV1 ovarian = system: IGROV1 ovarian
SF-539 CNS = system: SF-539 CNS
HT29 colon = system: HT29 colon
OVCAR-3 ovarian = system: OVCAR-3 ovarian
HL-60(TB) leukemia = system: HL-60(TB) leukemia
MDA-N = system: MDA-N
SN12C renal = system: SN12C renal
MDA-MB-435 = system: MDA-MB-435
HOP-92 NSCLC = system: HOP-92 NSCLC
HS 578T breast = system: HS 578T breast
K-562 leukemia = system: K-562 leukemia
MALME-3M melanoma = system: MALME-3M melanoma
UO-31 renal = system: UO-31 renal
NCI-H522 lung = system: NCI-H522 lung
UACC-62 melanoma = system: UACC-62 melanoma
SF-268 CNS = system: SF-268 CNS
TK-10 renal = system: TK-10 renal
SNB-19 CNS = system: SNB-19 CNS
SK-MEL-2 melanoma = system: SK-MEL-2 melanoma
SF-295 CNS = system: SF-295 CNS
U251 CNS = system: U251 CNS
RXF 393 renal = system: RXF 393 renal
SK-MEL-28 melanoma = system: SK-MEL-28 melanoma
786-0 renal = system: 786-0 renal
UACC-257 melanoma = system: UACC-257 melanoma
COLO 205 colon = system: COLO 205 colon
DU-145 prostate = system: DU-145 prostate
CAKI-1 renal = system: CAKI-1 renal
A549 NSCLC = system: A549 NSCLC
NCI-H23 lung = system: NCI-H23 lung
OVCAR-5 ovarian = system: OVCAR-5 ovarian
SK-MEL-5 melanoma = system: SK-MEL-5 melanoma
SR leukemia = system: SR leukemia
SW-620 colon = system: SW-620 colon
LOX IMVI melanoma = system: LOX IMVI melanoma
PC-3 prostate = system: PC-3 prostate
ACHN renal = system: ACHN renal
EKVX NSCLC = system: EKVX NSCLC
HOP-62 NSCLC = system: HOP-62 NSCLC
NCI-H226 lung = system: NCI-H226 lung
RPMI-8226 leukemia = system: RPMI-8226 leukemia
SK-OV-3 ovarian = system: SK-OV-3 ovarian
A498 renal = system: A498 renal
NCI/ADR-RES ovarian = system: NCI/ADR-RES ovarian
OVCAR-4 ovarian = system: OVCAR-4 ovarian
T-47D breast = system: T-47D breast
KM12 colon = system: KM12 colon
CCRF-CEM leukemia = system: CCRF-CEM leukemia
M14 melanoma = system: M14 melanoma
OVCAR-8 ovarian = system: OVCAR-8 ovarian
SNB-75 CNS = system: SNB-75 CNS

## C[C@@H]1C(O)CC[C@H](C)C12CC=CC2=O (some centres undefined)
HCT-116 colon
  TGI: > 100 µM
HCC-2998 colon
  TGI: > 100 µM
HCT-15 colon
  TGI: > 100 µM
MDA-MB-231 breast
  TGI: > 100 µM
MOLT-4 leukemia
  TGI: > 100 µM
NCI-H460 lung
  TGI: > 100 µM
MCF7 breast
  TGI: > 100 µM
IGROV1 ovarian
  TGI: > 100 µM
SF-539 CNS
  TGI: > 100 µM
HT29 colon
  TGI: > 100 µM
OVCAR-3 ovarian
  TGI: > 100 µM
HL-60(TB) leukemia
  TGI: > 100 µM
MDA-N
  TGI: > 100 µM
SN12C renal
  TGI: > 100 µM
MDA-MB-435
  TGI: > 100 µM
HOP-92 NSCLC
  TGI: > 100 µM
HS 578T breast
  TGI: > 100 µM
K-562 leukemia
  TGI: > 100 µM
MALME-3M melanoma
  TGI: > 100 µM
UO-31 renal
  TGI: > 100 µM
NCI-H522 lung
  TGI: > 100 µM
UACC-62 melanoma
  TGI: > 100 µM
SF-268 CNS
  TGI: > 100 µM
TK-10 renal
  TGI: > 100 µM
SNB-19 CNS
  TGI: > 100 µM
SK-MEL-2 melanoma
  TGI: > 100 µM
SF-295 CNS
  TGI: > 100 µM
U251 CNS
  TGI: > 100 µM
RXF 393 renal
  TGI: > 100 µM
SK-MEL-28 melanoma
  TGI: > 100 µM
786-0 renal
  TGI: > 100 µM
UACC-257 melanoma
  TGI: > 100 µM
COLO 205 colon
  TGI: > 100 µM
DU-145 prostate
  TGI: > 100 µM
CAKI-1 renal
  TGI: > 100 µM
A549 NSCLC
  TGI: > 100 µM
NCI-H23 lung
  TGI: > 100 µM
OVCAR-5 ovarian
  TGI: > 100 µM
SK-MEL-5 melanoma
  TGI: > 100 µM
SR leukemia
  TGI: > 100 µM
SW-620 colon
  TGI: > 100 µM
LOX IMVI melanoma
  TGI: > 100 µM
PC-3 prostate
  TGI: > 100 µM
ACHN renal
  TGI: > 100 µM
EKVX NSCLC
  TGI: > 100 µM
HOP-62 NSCLC
  TGI: > 100 µM
NCI-H226 lung
  TGI: > 100 µM
RPMI-8226 leukemia
  TGI: > 100 µM
SK-OV-3 ovarian
  TGI: > 100 µM
A498 renal
  TGI: > 100 µM
NCI/ADR-RES ovarian
  TGI: > 100 µM
OVCAR-4 ovarian
  TGI: > 100 µM
T-47D breast
  TGI: > 100 µM

## CC(C)[Si](OC1=CCCCCC12C(=O)N(C)c1ccccc12)(C(C)C)C(C)C (centres undefined)
HCC-2998 colon
  TGI: 38.3 µM
HCT-15 colon
  TGI: 33.8 µM
MDA-MB-231 breast
  TGI: 54.8 µM
MOLT-4 leukemia
  TGI: > 100 µM
NCI-H460 lung
  TGI: 38.4 µM
MCF7 breast
  TGI: 34 µM
IGROV1 ovarian
  TGI: 62.9 µM
SF-539 CNS
  TGI: 41.7 µM
HT29 colon
  TGI: 41.1 µM
OVCAR-3 ovarian
  TGI: 31.8 µM
HL-60(TB) leukemia
  TGI: 38.9 µM
MDA-N
  TGI: 79.7 µM
MDA-MB-435
  TGI: 67.3 µM
HOP-92 NSCLC
  TGI: 30.8 µM
KM12 colon
  TGI: 38 µM
HS 578T breast
  TGI: 61.6 µM
CCRF-CEM leukemia
  TGI: 36.5 µM
K-562 leukemia
  TGI: > 100 µM
MALME-3M melanoma
  TGI: 45.8 µM
M14 melanoma
  TGI: 49.2 µM
OVCAR-8 ovarian
  TGI: 44.6 µM
UO-31 renal
  TGI: 36.7 µM
NCI-H522 lung
  TGI: 33.7 µM
UACC-62 melanoma
  TGI: 59.2 µM
SF-268 CNS
  TGI: 48.1 µM
TK-10 renal
  TGI: 80.9 µM
SNB-19 CNS
  TGI: 29.5 µM
SK-MEL-2 melanoma
  TGI: 37.6 µM
SF-295 CNS
  TGI: 28.6 µM
U251 CNS
  TGI: 36.3 µM
RXF 393 renal
  TGI: 21.8 µM
SK-MEL-28 melanoma
  TGI: 60.4 µM
786-0 renal
  TGI: 37.7 µM
UACC-257 melanoma
  TGI: 45.8 µM
COLO 205 colon
  TGI: 35.8 µM
DU-145 prostate
  TGI: 29.9 µM
CAKI-1 renal
  TGI: 40.7 µM
A549 NSCLC
  TGI: 48.8 µM
NCI-H23 lung
  TGI: 46.1 µM
OVCAR-5 ovarian
  TGI: 33.2 µM
SK-MEL-5 melanoma
  TGI: 33.8 µM
SR leukemia
  TGI: 67.3 µM
SW-620 colon
  TGI: 35.6 µM
LOX IMVI melanoma
  TGI: 35.7 µM
PC-3 prostate
  TGI: > 100 µM
ACHN renal
  TGI: 35.9 µM
EKVX NSCLC
  TGI: 38.6 µM
HOP-62 NSCLC
  TGI: 58.1 µM
NCI-H226 lung
  TGI: 39 µM
RPMI-8226 leukemia
  TGI: 36.5 µM
SK-OV-3 ovarian
  TGI: 46.6 µM
A498 renal
  TGI: 42.8 µM
NCI/ADR-RES ovarian
  TGI: 42.8 µM
SNB-75 CNS
  TGI: 40.4 µM
OVCAR-4 ovarian
  TGI: > 100 µM
T-47D breast
  TGI: 21.3 µM
